As usually defined, the EC50 is the concentration that produces a half-maximal response.

88 molecules from PubChem BioAssay AID588407 (The Scripps Research Institute Molecular Screening Center, 2011) can be followed below.

Where “and” joins values, the source holds several entries; their conditions need not be identical. Equal values may be shown once. Calls of active or inactive are those of the source. No rule for the calls is given here. Where only a bound is given, the exact number is not on record here.

This assay deals with Mu-type opioid receptor (Homo sapiens) + Delta-type opioid receptor (Homo sapiens) (UniProt P35372+P41143). Description: agonists of MOR-DOR heterodimerization, dose response, cell-based, luminescence (AID 588407).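 Also: potency of agonists raising the heterodimer signal.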 The settings on record: cells.
Mu-type opioid receptor (Homo sapiens) + Delta-type opioid receptor (Homo sapiens), sequence (P35372 whole entry, looked up): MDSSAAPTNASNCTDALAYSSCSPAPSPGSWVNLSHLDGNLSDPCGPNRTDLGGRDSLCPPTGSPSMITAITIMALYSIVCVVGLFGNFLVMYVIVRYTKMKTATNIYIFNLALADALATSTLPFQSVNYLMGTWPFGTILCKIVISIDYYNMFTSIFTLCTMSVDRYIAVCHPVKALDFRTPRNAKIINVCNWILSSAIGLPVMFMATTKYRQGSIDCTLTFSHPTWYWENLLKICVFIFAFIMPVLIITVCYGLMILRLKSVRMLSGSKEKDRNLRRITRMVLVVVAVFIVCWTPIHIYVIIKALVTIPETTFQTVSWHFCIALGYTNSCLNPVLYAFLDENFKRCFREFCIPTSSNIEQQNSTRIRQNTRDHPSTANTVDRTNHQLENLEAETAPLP
Mu-type opioid receptor (Homo sapiens) + Delta-type opioid receptor (Homo sapiens), sequence (P41143 whole entry, looked up): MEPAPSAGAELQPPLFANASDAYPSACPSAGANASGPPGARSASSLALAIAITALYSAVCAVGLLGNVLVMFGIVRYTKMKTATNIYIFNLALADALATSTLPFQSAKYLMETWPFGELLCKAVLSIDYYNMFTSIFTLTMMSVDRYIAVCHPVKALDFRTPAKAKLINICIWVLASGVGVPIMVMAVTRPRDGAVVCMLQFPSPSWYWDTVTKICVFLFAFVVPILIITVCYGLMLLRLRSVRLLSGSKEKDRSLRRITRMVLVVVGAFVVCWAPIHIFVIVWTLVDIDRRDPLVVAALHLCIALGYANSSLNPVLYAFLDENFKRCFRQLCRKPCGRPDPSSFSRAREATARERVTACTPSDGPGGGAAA
Regarding `CCOC(=O)C1(CCCc2ccccc2)CCN(Cc2cnn(C)c2)CC1`, the EC50 was 4.56 µM. `CCN(c1nc(N)c(C(=O)N=C(N)N)nc1Cl)C(C)C`: the EC50 is 9.57 µM. The same measure for `CCc1ccc2nc(N(CCCN(C)C)C(=O)c3ccc(S(=O)(=O)N(C)C4CCCCC4)cc3)sc2c1`: “inactive”; for `Cc1ccccc1Cn1c(O)c(N=NC(=S)Nc2ccccc2F)c2ccccc21`: > 92.5 µM (inactive). The same measure for `COC(=O)C1=C(C)N(CCCC(=O)O)C(=O)NC1c1ccccc1OS(=O)(=O)c1ccccc1[N+](=O)[O-]` (stereo not drawn): 8.75 µM; for `OCC1(CCc2ccccc2)CCN(Cc2cc(F)ccc2-n2cccn2)CC1`: 4.67 µM; for `CSC(=Nc1ccccc1)N=C(SCc1ccccc1)N(C)C`: 7.33 µM. To `O=C(NCCc1ccc(Cl)cc1)C1CCC(CNc2nc(=S)[nH]c3ccccc23)CC1` (stereo not drawn) belongs > 92.5 µM (inactive). Take `Cc1ccc(C2(O)CN(c3ccccc3C)C3=[N+]2CCS3)cc1` (stereo not drawn): the EC50 is 0.381 µM. For `Cc1ccc(Cn2c(=N)n(CC(O)COc3ccccc3)c3ccccc32)cc1` (stereo not drawn), the EC50 result is “inactive”. To `CC1=C/C(=N\OS(=O)(=O)c2ccccc2)C(C)=CC1=O` belongs “inactive”; to `Cc1ccc(-n2cc(CNC(C)c3cnn(C)c3)c(-c3ccc(F)cc3)n2)cc1` (stereo not drawn), 0.151 µM; to `COc1ccc2c(c1)C=C(CN1CCC(CO)(CCc3ccccc3)CC1)CO2`, “inactive”. The same measure for `CCOC(=O)C1(c2ccccc2)CCN(CCC(=O)Nc2cccc(Br)c2)CC1`: 8.78 µM; for `CCC(=O)C(CCN1CCOCC1)(c1ccccc1)c1ccccc1`: 0.982 µM.

Turning to `Nc1nonc1C(=O)NCCNCc1c(OCc2ccccc2F)ccc2ccccc12`, the EC50 entry was “inactive”.

Regarding `COc1ccc(-n2c3c(cc(C(=O)NNc4ccccc4C)c2=O)C(=O)CC(C)(C)C3)cc1`, the EC50 is 2.55 µM. `COc1ccc2[nH]c3c(=O)n(/N=C/[C@H]4C(C)C=C(C)CC4C)c(=O)[nH]c3c2c1` (stereo partly drawn): the EC50 was > 92.5 µM (inactive). As to `CN(C)C(CNC(=O)Cc1ccc(Br)cc1)c1ccccc1` (stereo not drawn), the EC50 was 0.915 µM. As for `CCc1ccc(NC(=O)Nc2ccc3c(c2)N(C)C(=O)CS3)cc1`, the EC50 was 9.42 µM. For the molecule `CN(C)S(=O)(=O)c1ccc(-c2csc(N/N=C/c3ccc(O)cc3)n2)cc1`, the EC50 is 9.95 µM. The same measure for `CC(=O)NC(CC(=O)NCC(c1ccco1)N(C)C)c1ccccc1` (stereo not drawn): 1.06 µM. `CC1CN(C)C(C)c2c1oc1ccc(N)cc21` (stereo not drawn): the EC50 result was “inactive”. The same measure for `Cc1cc(N2CCN(C)CC2)ccc1NC(=O)c1ccc(-c2ccc(Cl)cc2)o1`: “inactive”. `CCOc1ccc(Nc2c3ccccc3nc3ccccc23)cc1`: the EC50 entry was “inactive”. To `Cc1ccc(OCC(=O)Nc2ccc(NC(=O)c3cccs3)cc2)c(C)c1` belongs > 10.3 µM (inactive); to `Brc1ccc(NC2=Nc3ccccc3CC2)cc1`, “inactive”; to `Oc1ccc(Oc2ccc3c(C(F)(F)F)cc(C(F)(F)F)nc3n2)cc1`, “inactive”. The same measure for `CN(C)c1ccc(C(CNC(=O)Cc2cccc3ccccc23)N(C)C)cc1` (stereo not drawn): “inactive”; for `COc1ccc(C(CNC(=O)CCc2ccsc2)N(C)C)cc1` (stereo not drawn): 0.2 µM. `CCOC(=O)c1c(C)[nH]c(C(=O)OC/C(O)=C(\C#N)c2nc3ccccc3[nH]2)c1C`: the EC50 was > 92.5 µM (inactive). Consider `CCCc1nc2c(=O)n(C)c(=O)nc-2n(C)n1`, for which the EC50 is > 92.5 µM (inactive). To `CCOC(=O)C1(CCOc2ccccc2)CCN(Cc2cnc(C)s2)CC1` belongs 7.89 µM; to `Cc1ccc2c(C)c(C(=O)N(Cc3cccs3)C3CCS(=O)(=O)C3)oc2c1` (stereo not drawn), 7.04 µM. As for `CC(=O)Nc1ccc(S(=O)(=O)NC2=C(N3CCN(Cc4ccccc4)CC3)C(=O)c3ccccc3C2=O)cc1`, the concentration giving a half-maximal response (EC50) is 1.38 µM and 1.63 µM.

In the case of `COc1ccc(C(CNC(=O)C(Cc2ccccc2)NC(N)=O)N(C)C)cc1` (stereo not drawn), the EC50 entry is “inactive”.

For the molecule `COc1ccccc1CN1CCN(C(CC(C)C)c2nnnn2Cc2cccs2)CC1` (stereo not drawn), the EC50 result is “inactive”. The same measure for `Cc1ccc2cc(C(c3nnnn3Cc3ccccc3)N3CCc4ccccc43)c(=O)[nH]c2c1` (stereo not drawn): “inactive”. With `COC(=O)CCCNC(=O)c1ccc(OC2CCN(CCc3ccccc3)CC2)cc1`, the EC50 result is “inactive”. To `Cc1ccc(NC(=O)c2ncn(CCCN[C@H](C)c3cccc4ccccc34)n2)cc1C` belongs 9.88 µM. The same measure for `COc1ccc(C(C)NCCC(c2ccc(OC(C)C)cc2)c2ccccc2OC)cc1` (stereo not drawn): “inactive”; for `Cc1ccccc1OCC(O)Cn1c(=N)n(Cc2ccccc2)c2ccccc21` (stereo not drawn): “inactive”. Take `CCN1CCN(c2ccc([N+](=O)[O-])c(Sc3nc4ccccc4[nH]3)c2)CC1`: the EC50 was 4.66 µM. As for `CN(C)C(CNC(=S)Nc1ccccc1)c1cccnc1` (stereo not drawn), the EC50 is 3.47 µM. In the case of `CC[C@@H](C)[C@@H]1CN([C@@H](CN2CCC[C@H]2CN2C(N)=NC[C@H]2C(C)C)C(C)C)C(=N)N1CCc1ccc(Cl)c(Cl)c1`, the EC50 was 2.36 µM. To `CN(C)C(CNC(=S)Nc1ccccc1Cl)c1cccnc1` (stereo not drawn) belongs 0.524 µM.

On to `CN(C(=O)Cc1ccc(Cl)c(Cl)c1)C(CN1CCCC1)c1cccc(OCC(=O)O)c1` (stereo not drawn), for which the EC50 entry is “inactive”. The same measure for `CCC(=O)OC1(c2cccc(C)c2)CC(C)N(C)CC1C` (stereo not drawn): “inactive”; for `CCc1ccc2nc(N(CCCN(C)C)C(=O)c3ccc(S(=O)(=O)N4CCc5ccccc5C4)cc3)sc2c1`: “inactive”.

As for `CCOC(=O)C1(CCOC)CCN(Cc2ccccc2-c2ccco2)CC1`, the EC50 was 3.18 µM. To `CCOC(=O)C1(Cc2ccccc2)CCN(Cc2cccn2-c2cccnc2)CC1` belongs “inactive”; to `CCNS(=O)(=O)c1ccc(NC(=O)Nc2ccc3c(c2)OCO3)cc1`, 9.34 µM; to `O=c1c2ccc(Cl)cc2[nH]c(=S)n1Cc1cccnc1`, 8.6 µM. The same measure for `CN(C)C(CNC(=O)Cc1ccc([N+](=O)[O-])cc1)c1ccccc1` (stereo not drawn): 7.74 µM. The same measure for `Cc1cccc(NC(=S)NC(=O)CCc2ccccc2)c1`: > 92.5 µM (inactive); for `CN(C)C(CNC(=O)c1ccc2ccccc2c1)c1ccco1` (stereo not drawn): “inactive”. For `COc1cc2c3cc1Oc1cc(ccc1O)C[C@@H]1c4c(cc(OC)c(O)c4Oc4ccc(cc4)C[C@H]3N(C)CC2)CCN1C`, the EC50 result was “inactive”. To `CCOC(=O)C1(CC2CCCCO2)CCN(Cc2ccc(OC)cc2F)CC1` (stereo not drawn) belongs “inactive”. For `Cc1cc(Cl)ccc1OCC(=O)N[C@@H](Cc1ccccc1)c1nc2ccccc2[nH]1`, the EC50 result is “inactive”. To `Cc1ccc2nc(N(CCCN(C)C)C(=O)c3ccc(S(=O)(=O)N4CCc5ccccc5C4)cc3)sc2c1` belongs 8.9 µM; to `COc1cc(C(=O)OC(C)C(=O)NCC2CCCCC2)cc(NC(=O)c2ccco2)c1OC` (stereo not drawn), > 92.5 µM (inactive).

Regarding `COc1ccc(C(C(=O)NC2CCCCC2)N(C(=O)Cc2c[nH]c3ccccc23)c2ccc(NC(C)=O)cc2)cc1OC` (stereo not drawn), the EC50 was > 92.5 µM (inactive). To `O=C(CSc1ccc(Cl)cc1)Nc1ccc(-c2nc3ccccc3[nH]2)cc1` belongs > 92.5 µM (inactive); to `CN1CCN(Cc2nc3ccccc3c(=O)n2Cc2nc(-c3ccc4ccccc4c3)cs2)CC1`, > 10.3 µM (inactive); to `CCOC(=O)C1(CCc2ccccc2)CCN(Cc2ccco2)CC1`, “inactive”. The same measure for `COC(=O)C1=C(C)N(CCCC(=O)O)C(=O)NC1c1ccccc1OS(=O)(=O)c1ccc([N+](=O)[O-])cc1` (stereo not drawn): 5.73 µM; for `Cc1cc(/C=C2\SC(=Nc3ccccc3)NC2=O)c(C)n1-c1ccc(S(N)(=O)=O)cc1`: 1.53 µM. To `CN1C(CC(=O)Nc2ccc(Br)cc2)c2ccccc2CC1(C)C` (stereo not drawn) belongs 9.37 µM; to `C/C(=N/Nc1ccnc2cc(Cl)ccc12)c1ccc(N)cc1`, “inactive”; to `CCC1(C)CC(CCNCc2ccc(N(C)C)cc2)(c2ccc(F)cc2)CCO1` (stereo not drawn), 2.9 µM.

On to `CCOC(=O)C1(CCOc2ccccc2)CCN(Cc2ccc3c(c2)OCCO3)CC1`, for which the EC50 result was “inactive”. The same measure for `Cc1ccc2nc(SC(C(=O)Nc3ccc(F)cc3)c3ccccc3)[nH]c2c1` (stereo not drawn): > 92.5 µM (inactive); for `CN1CCN(c2ccc(NC(=O)c3ccc(-c4ccc(Br)cc4)o3)cc2)CC1`: 1.92 µM. To `CCOC(=O)C1(CC2CCCCO2)CCN(Cc2nc(-c3cccs3)oc2C)CC1` (stereo not drawn) belongs “inactive”; to `CCOC(=O)C1(c2ccccc2)CCN(CCC(=O)Nc2ccc(F)cc2)CC1`, 2.36 µM; to `O=C(C=P(c1ccccc1)(c1ccccc1)c1ccccc1)c1ccccc1-c1ccccc1C(=O)C=P(c1ccccc1)(c1ccccc1)c1ccccc1`, > 92.5 µM (inactive). The same measure for `CCc1cccc(C)c1NC(=S)NCC(c1cccnc1)N(C)C` (stereo not drawn): 3.68 µM; for `O=C(COc1ccc(/C=N/NC(=O)c2cc3ccccc3o2)cc1Br)Nc1ccccc1`: 9.7 µM; for `Cc1ccccc1N(CC(=O)N/N=C/c1ccc(F)cc1)C(=O)c1ccccc1`: “inactive”.

In the case of `COC(=O)C(Cc1cccc(C)n1)(c1ccccc1)c1ccccc1`, the EC50 was 3.93 µM. On to `CCOC(=O)C1(CCOc2ccccc2)CCN(Cc2ccc(C)s2)CC1`, for which the EC50 entry was “inactive”. The same measure for `COc1ccc(NS(=O)(=O)c2ccc(O)c(NC(=O)c3cc4c(C)nn(-c5ccc(F)cc5)c4s3)c2)cc1`: > 92.5 µM (inactive). The same measure for `Cn1c(CN2CCN(c3cccc(Cl)c3)CC2)nc2ccccc21`: 3.34 µM; for `COc1cc(C2C(C#N)=C(N)N(c3sc4c(c3C#N)CCCC4)C3=C2C(=O)CC(C)(C)C3)cc(OC)c1OC` (stereo not drawn): “inactive”.

Turning to `Cc1ccc(C)c(-n2cc(CNCCc3cnccn3)c(-c3ccccc3)n2)c1`, the EC50 is 10 µM. To `Cc1cc2[nH]c3c4ccccc4nc(C)c3c2cc1C` belongs 7.66 µM; to `CCn1cc(CNCc2cn(-c3ccccc3C)nc2-c2ccc(OC)c(F)c2)cn1`, 1.75 µM; to `O=C(N[C@H]1C/C=C\C[C@H](CC(=O)N(CCO)Cc2ccccc2)C(=O)N[C@H](Cc2c[nH]c3ccccc23)COC1=O)OCC1c2ccccc2-c2ccccc21`, “inactive”.
